molecular target: T1, mouse GnRH receptor (Mus musculus, UniProt Q01776); experiment: Radioligand binding, 125I-GnRH-A, 293 cells expressing mouse GnRH receptors; conditions: 10 uM; read-out: % Inhib. @ 10 uM mGnRH
T1 construct: expressed in transfected cells; host or cells: 293 cells
T1 sequence (Q01776 1-327): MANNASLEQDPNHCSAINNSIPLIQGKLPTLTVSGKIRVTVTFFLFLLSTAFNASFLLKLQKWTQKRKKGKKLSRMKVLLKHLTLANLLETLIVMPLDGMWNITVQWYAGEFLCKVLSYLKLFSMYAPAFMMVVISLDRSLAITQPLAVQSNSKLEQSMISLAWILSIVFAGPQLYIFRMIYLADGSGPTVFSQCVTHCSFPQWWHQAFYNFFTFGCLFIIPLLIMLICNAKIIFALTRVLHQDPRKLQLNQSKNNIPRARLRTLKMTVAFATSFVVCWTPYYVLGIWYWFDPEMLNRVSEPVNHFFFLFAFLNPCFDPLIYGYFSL
In short: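 Bound label captured on 0.1% polyethyleneimine-treated GF/C filters, washed three times with PBS, counted. IC50 derived; identical set-up for every species.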

inhibition at 10 µM | SMILES
97% | COC(OC)C(C)NC(=O)c1ccc(Cc2cc3c(cc2C)C(C)(C)CCC3(C)C)o1 (centres unmarked) [drawing 1589]
100% | CCC1CCCCN1C(=O)c1ccc(Cc2cc3c(cc2C)C(C)(C)CCC3(C)C)o1 (centres unmarked)
98% | Cc1cc2c(cc1Cc1ccc(C(=O)NC(CO)CC(C)C)o1)C(C)(C)CCC2(C)C (centres unmarked) [drawing 1320]
100% | CCCCN(C)C(=O)c1ccc(Cc2cc3c(cc2C)C(C)(C)CCC3(C)C)o1 [drawing 1548]
106% | Cc1cc2c(cc1Cc1ccc(C(=O)NCCCCCCN(C)C)o1)C(C)(C)CCC2(C)C [drawing 1519]
100% | CCN(C(=O)c1ccc(Cc2cc3c(cc2C)C(C)(C)CCC3(C)C)o1)C1CCCCC1 [drawing 1524]
100% | Cc1cc2c(cc1Cc1ccc(C(=O)N3CCN(C(C)C)CC3)o1)C(C)(C)CCC2(C)C
77% | Cc1cc2c(cc1Cc1ccc(C(=O)N(CCC#N)Cc3ccco3)o1)C(C)(C)CCC2(C)C [drawing 1309]
66% | CCOC(CN(CCc1ccccc1)C(=O)c1ccc(Cc2cc3c(cc2C)C(C)(C)CCC3(C)C)o1)OCC [drawing 1296]
83% | C#CCN(C)C(=O)c1ccc(Cc2cc3c(cc2C)C(C)(C)CCC3(C)C)o1
90% | Cc1cc2c(cc1Cc1ccc(C(=O)NC(C)(C)CO)o1)C(C)(C)CCC2(C)C [drawing 1585]
99% | CCSCCNC(=O)c1ccc(Cc2cc3c(cc2C)C(C)(C)CCC3(C)C)o1 [drawing 1588]
69% | CCN(CC)CCCN(CCCN(CC)CC)C(=O)c1ccc(Cc2cc3c(cc2C)C(C)(C)CCC3(C)C)o1
92% | Cc1cc2c(cc1Cc1ccc(C(=O)N(C)CCCN(C)C)o1)C(C)(C)CCC2(C)C [drawing 1516]
49% | Cc1cc2c(cc1Cc1ccc(C(=O)NCC[N+](C)(C)C)o1)C(C)(C)CCC2(C)C
77% | Cc1cc2c(cc1Cc1ccc(C(=O)N(CCC#N)CCC#N)o1)C(C)(C)CCC2(C)C [drawing 1536]
88% | Cc1cc2c(cc1Cc1ccc(C(=O)N(CCC#N)C3CCCC3)o1)C(C)(C)CCC2(C)C
89% | Cc1cc2c(cc1Cc1ccc(C(=O)N(C)C3CCN(C)CC3)o1)C(C)(C)CCC2(C)C [drawing 1420]
85% | Cc1cc2c(cc1Cc1ccc(C(=O)N(CC(C)C)CC(C)C)o1)C(C)(C)CCC2(C)C [drawing 1501]
95% | C=CCN(C(=O)c1ccc(Cc2cc3c(cc2C)C(C)(C)CCC3(C)C)o1)C1CCCC1
81% | CCN(CCO)C(=O)c1ccc(Cc2cc3c(cc2C)C(C)(C)CCC3(C)C)o1 [drawing 1451]

Second part, the molecule before the results:

SMILES | inhibition at 10 µM
Cc1cc2c(cc1Cc1ccc(C(=O)N3CCC(CNC(=O)C(F)(F)F)CC3)o1)C(C)(C)CCC2(C)C [drawing 1308] | 41%
CCN1CC(N(Cc2ccc(N(C)C)cc2)C(=O)c2ccc(Cc3cc4c(cc3C)C(C)(C)CCC4(C)C)o2)CN1CC [drawing 1566] | 95%
COc1ccc(N2CCN(C(=O)c3ccc(Cc4cc5c(cc4C)C(C)(C)CCC5(C)C)o3)CC2C)cc1 (centres unmarked) | 73%
Cc1cc2c(cc1Cc1ccc(C(=O)N3CCC(NC(=O)OC(C)(C)C)CC3)o1)C(C)(C)CCC2(C)C | 67%
Cc1cc2c(cc1Cc1ccc(C(=O)N3CCC(NC(=O)C(F)(F)F)C3)o1)C(C)(C)CCC2(C)C (centres unmarked) [drawing 1578] | 60%
Cc1cc2c(cc1Cc1ccc(C(=O)N3CCC(Cc4ccccc4)CC3)o1)C(C)(C)CCC2(C)C [drawing 1425] | 48%
COC(=O)C1CN(C(=O)c2ccc(Cc3cc4c(cc3C)C(C)(C)CCC4(C)C)o2)CC(C)C1=O (centres unmarked) | 26%
Cc1cc2c(cc1Cc1ccc(C(=O)N3CCN(c4cccc(C)c4C)CC3)o1)C(C)(C)CCC2(C)C [drawing 1468] | 58%
Cc1cc2c(cc1Cc1ccc(C(=O)N[C@H]3CC[C@@H](O)CC3)o1)C(C)(C)CCC2(C)C | 82%
Cc1cc2c(cc1Cc1ccc(C(=O)N3CCCCCCC3)o1)C(C)(C)CCC2(C)C [drawing 1433] | 88%
Cc1cc2c(cc1Cc1ccc(C(=O)N3CCN(c4ccccc4O)CC3)o1)C(C)(C)CCC2(C)C | 36%
Cc1cc2c(cc1Cc1ccc(C(=O)N(Cc3cccnc3)Cc3cccc(C(F)(F)F)c3)o1)C(C)(C)CCC2(C)C [drawing 1475] | 80%
CC1(C)CCC(C)(C)c2cc(Cc3ccc(C(=O)NC4c5ccccc5-c5ccccc54)o3)ccc21 | 53%
Cc1cc2c(cc1Cc1ccc(C(=O)N3CCc4ccccc4C3Cc3ccccc3)o1)C(C)(C)CCC2(C)C (centres unmarked) [drawing 1515] | 46%
Cc1cc2c(cc1Cc1ccc(C(=O)N3CCC[C@@H]3C(=O)NC(c3ccccc3)c3ccccc3)o1)C(C)(C)CCC2(C)C | 58%
Cc1cc2c(cc1Cc1ccc(C(=O)N(Cc3cccnc3)Cc3ccc(Cl)c(Cl)c3)o1)C(C)(C)CCC2(C)C | 79%
Cc1cc2c(cc1Cc1ccc(C(=O)N3CCc4c([nH]c5ccccc45)C3)o1)C(C)(C)CCC2(C)C | 44%
Cc1cc2c(cc1Cc1ccc(C(=O)NCC3(O)CCCCC3)o1)C(C)(C)CCC2(C)C [drawing 1445] | 65%
Cc1cc2c(cc1Cc1ccc(C(=O)N(Cc3ccsc3)C3CCN(Cc4ccccc4)C3)o1)C(C)(C)CCC2(C)C (centres unmarked) [drawing 1560] | 91%
Cc1cc2c(cc1Cc1ccc(C(=O)N(Cc3ccccc3)[C@@H](C)c3ccccc3)o1)C(C)(C)CCC2(C)C [drawing 1542] | 46%
Cc1cc2c(cc1Cc1ccc(C(=O)N(Cc3cccn3C)C3CCN(Cc4ccccc4)C3)o1)C(C)(C)CCC2(C)C (centres unmarked) [drawing 1562] | 98%

same assay, conditions: 1 h, substrate remaining; 10 uM compound; closer to zero = closer to 100% inhibition; read-out: S%R 10 uM mGnRHR

remaining activity at 10 µM | SMILES
29% | Cc1cc2c(cc1Cc1ccc(C(=O)NC(C)C3CCCCC3)o1)C(C)(C)CCC2(C)C (centres unmarked) [Compound 546]
3% | Cc1cc2c(cc1Cc1ccc(C(=O)N3CCCC(C)(C)C3)o1)C(C)(C)CCC2(C)C [Compound 657]
9% | Cc1cc2c(cc1Cc1ccc(C(=O)NCCc3c[nH]cn3)o1)C(C)(C)CCC2(C)C [Compound 513]
22% | CCN(Cc1ccc(C)cc1)C(=O)c1ccc(Cc2cc3c(cc2C)C(C)(C)CCC3(C)C)o1 [Compound 644]
35% | CCCCN(C(=O)c1ccc(Cc2cc3c(cc2C)C(C)(C)CCC3(C)C)o1)C(C)c1ccccc1 (centres unmarked) [Compound 695]
-5% | CSCCC(CO)NC(=O)c1ccc(Cc2cc3c(cc2C)C(C)(C)CCC3(C)C)o1 (centres unmarked) [Compound 675]
19% | CCN(CCO)C(=O)c1ccc(Cc2cc3c(cc2C)C(C)(C)CCC3(C)C)o1 [Compound 539]
19% | Cc1cc2c(cc1Cc1ccc(C(=O)NC(C)CO)o1)C(C)(C)CCC2(C)C (centres unmarked) [Compound 685]
15% | Cc1cc2c(cc1Cc1ccc(C(=O)N(CC(C)C)CC(C)C)o1)C(C)(C)CCC2(C)C [Compound 584]
11% | COC(CN(C)C(=O)c1ccc(Cc2cc3c(cc2C)C(C)(C)CCC3(C)C)o1)OC [Compound 611]
12% | CCN(CC)CCN(C)C(=O)c1ccc(Cc2cc3c(cc2C)C(C)(C)CCC3(C)C)o1 [Compound 532]

The remaining lines, values behind:

SMILES | remaining activity at 10 µM
Cc1cc2c(cc1Cc1ccc(C(=O)NCC3CCC(C(=O)O)CC3)o1)C(C)(C)CCC2(C)C (centres unmarked) [Compound 479] | -3%
Cc1cc2c(cc1Cc1ccc(C(=O)N3CCC(n4c(=O)[nH]c5ccccc54)CC3)o1)C(C)(C)CCC2(C)C [Compound 670] | 16%
Cc1cc2c(cc1Cc1ccc(C(=O)NCCc3cccnc3)o1)C(C)(C)CCC2(C)C [Compound 457] | -3%
Cc1cc2c(cc1Cc1ccc(C(=O)N(CCN3CCCCC3)Cc3ccccc3)o1)C(C)(C)CCC2(C)C [Compound 603] | -4%
Cc1cc2c(cc1Cc1ccc(C(=O)N3CCN(Cc4ccc(C(C)(C)C)cc4)CC3)o1)C(C)(C)CCC2(C)C [Compound 658] | 35%
Cc1cc2c(cc1Cc1ccc(C(=O)N3CCN(C4CCCCC4)CC3)o1)C(C)(C)CCC2(C)C [Compound 701] | -1%
Cc1cc2c(cc1Cc1ccc(C(=O)NCC(O)c3ccccc3)o1)C(C)(C)CCC2(C)C (centres unmarked) [Compound 596] | -1%
Cc1cc2c(cc1Cc1ccc(C(=O)NC3CCC(c4nccc(NCC5CCCO5)n4)C3)o1)C(C)(C)CCC2(C)C (centres unmarked) [Compound 486] | 33%
Cc1cc2c(cc1Cc1ccc(C(=O)NCCc3ccc(Oc4ccccc4)cc3)o1)C(C)(C)CCC2(C)C [Compound 622] | 43%
CCN1CC(N(Cc2ccc(N(C)C)cc2)C(=O)c2ccc(Cc3cc4c(cc3C)C(C)(C)CCC4(C)C)o2)CN1CC [Compound 653] | 6%
Cc1cc2c(cc1Cc1ccc(C(=O)NCCc3ccc(F)cc3)o1)C(C)(C)CCC2(C)C [Compound 632] | 21%
Cc1cc2c(cc1Cc1ccc(C(=O)NCC3CN(Cc4ccccc4)CCO3)o1)C(C)(C)CCC2(C)C (centres unmarked) [Compound 499] | 1%
Cc1cc2c(cc1Cc1ccc(C(=O)N3CCC4(C)CC(C)(C)CC45CC35)o1)C(C)(C)CCC2(C)C (centres unmarked) [Compound 634] | 1%
COc1ccc(CCNC(=O)c2ccc(Cc3cc4c(cc3C)C(C)(C)CCC4(C)C)o2)cc1Br [Compound 643] | 23%
Cc1cc2c(cc1Cc1ccc(C(=O)NCCNc3cccc4ccccc34)o1)C(C)(C)CCC2(C)C [Compound 602] | 44%
